In brackets after ≈: the same amount, converted by molar mass.
Tests used:
Assay type in all cases: functional
[1] = test system: Bacillus subtilis; test: Antibacterial activity against Bacillus subtilis ATCC 82 after 20 hrs by broth dilution method; conditions: ATCC 82, 20 h
[2] = test system: Staphylococcus aureus; test: Antibacterial activity against Staphylococcus aureus ATCC 29213 after 20 hrs by broth dilution method; conditions: ATCC 29213, 20 h
[3] = test system: Staphylococcus aureus; test: Antibacterial activity against methicillin-resistant Staphylococcus aureus clinical isolate after 20 hrs by broth dilution method
[4] = test system: Escherichia coli; test: Antibacterial activity against Escherichia coli ATCC 25922 after 20 hrs by broth dilution method; conditions: ATCC 25922, 20 h
[5] = test system: Pseudomonas aeruginosa; test: Antibacterial activity against Pseudomonas aeruginosa ATCC 27853 after 20 hrs by broth dilution method; conditions: ATCC 27853, 20 h
[6] = test system: Escherichia coli; test: Antibacterial activity against extended spectrum beta lactamase-producing Escherichia coli clinical isolate after 20 hrs by broth dilution method
[7] = test system: Escherichia coli; test: Antibacterial activity against drug-resistant Escherichia coli clinical isolate after 20 hrs by broth dilution method

Compound | MIC [1] | MIC [2] | MIC [3] | MIC [4] | MIC [5] | MIC [6] | MIC [7]
CC(C)C[C@@H]1NC(=O)[C@H](CC(N)=O)NC(=O)[C@H](CC(N)=O)NC(=O)[C@@H](Cc2ccccc2)NC(=O)[C@H](Cc2ccccc2)NC(=O)[C@@H]2CCCN2C(=O)[C@@H](Cc2ccc(O)cc2)NC(=O)[C@H](CC(C)C)NC(=O)[C@H](CCCN)NC(=O)[C@H](C(C)C)NC1=O | 1 µg/mL (≈ 0.818 µM) | 2 µg/mL (≈ 1.64 µM) | 4 µg/mL (≈ 3.27 µM) | 64 µg/mL (≈ 52.4 µM) | > 256 µg/mL | 256 µg/mL (≈ 209 µM) | 64 µg/mL (≈ 52.4 µM)
CC(C)C[C@@H]1NC(=O)[C@H](CC(=O)O)NC(=O)[C@H](CC(N)=O)NC(=O)[C@@H](Cc2ccccc2)NC(=O)[C@H](Cc2ccccc2)NC(=O)[C@@H]2CCCN2C(=O)[C@@H](Cc2ccc(O)cc2)NC(=O)[C@H](CC(C)C)NC(=O)[C@H](CCCN)NC(=O)[C@H](C(C)C)NC1=O [LATEROCIDIN] | 16 µg/mL (≈ 13.1 µM) | 32 µg/mL (≈ 26.2 µM) | 128 µg/mL (≈ 105 µM) | > 256 µg/mL | > 256 µg/mL | > 256 µg/mL | –
CC(C)C[C@@H]1NC(=O)[C@H](CC(N)=O)NC(=O)[C@H](CC(N)=O)NC(=O)[C@H](Cc2ccccc2)NC(=O)[C@H](Cc2ccc(O)cc2)NC(=O)[C@@H]2CCCN2C(=O)[C@@H](Cc2ccccc2)NC(=O)[C@H](CC(C)C)NC(=O)[C@H](CCCN)NC(=O)[C@H](C(C)C)NC1=O | 32 µg/mL (≈ 26.2 µM) | 32 µg/mL (≈ 26.2 µM) | 16 µg/mL (≈ 13.1 µM) | > 256 µg/mL | > 256 µg/mL | > 256 µg/mL | –
CC(C)C[C@@H]1NC(=O)[C@H](CCCN)NC(=O)[C@H](C(C)C)NC(=O)[C@H](CC(C)C)NC(=O)[C@H](CC(N)=O)NC(=O)[C@H](CC(N)=O)NC(=O)[C@@H](Cc2ccccc2)NC(=O)[C@H](Cc2ccc(O)cc2)NC(=O)[C@@H]2CCCN2C(=O)[C@H](Cc2ccccc2)NC1=O | 32 µg/mL (≈ 26.2 µM) | 128 µg/mL (≈ 105 µM) | 256 µg/mL (≈ 209 µM) | > 256 µg/mL | > 256 µg/mL | > 256 µg/mL | –
CC(C)C[C@@H]1NC(=O)[C@H](CCCN)NC(=O)[C@H](C(C)C)NC(=O)[C@H](CC(C)C)NC(=O)[C@H](CC(N)=O)NC(=O)[C@H](CC(N)=O)NC(=O)[C@H](Cc2ccccc2)NC(=O)[C@H](Cc2ccc(O)cc2)NC(=O)[C@@H]2CCCN2C(=O)[C@H](Cc2ccccc2)NC1=O | 64 µg/mL (≈ 52.4 µM) | 64 µg/mL (≈ 52.4 µM) | 128 µg/mL (≈ 105 µM) | > 256 µg/mL | > 256 µg/mL | > 256 µg/mL | –
CC(C)C[C@@H]1NC(=O)[C@H](CC(N)=O)NC(=O)[C@H](CC(N)=O)NC(=O)[C@@H](Cc2ccccc2)NC(=O)[C@H](Cc2ccc(O)cc2)NC(=O)[C@@H]2CCCN2C(=O)[C@@H](Cc2ccccc2)NC(=O)[C@H](CC(C)C)NC(=O)[C@H](CCCN)NC(=O)[C@H](C(C)C)NC1=O | 0.5 µg/mL (≈ 0.409 µM) | 1 µg/mL (≈ 0.818 µM) | 1 µg/mL (≈ 0.818 µM) | > 256 µg/mL | > 256 µg/mL | 64 µg/mL (≈ 52.4 µM) | 16 µg/mL (≈ 13.1 µM)
CC(C)C[C@@H]1NC(=O)[C@H](CC(N)=O)NC(=O)[C@H](CC(N)=O)NC(=O)[C@@H](Cc2ccccc2)NC(=O)[C@H](Cc2ccccc2)NC(=O)[C@@H]2CCCN2C(=O)[C@@H](Cc2ccccc2)NC(=O)[C@H](CC(C)C)NC(=O)[C@H](CCCN)NC(=O)[C@H](C(C)C)NC1=O | 2 µg/mL (≈ 1.66 µM) | 2 µg/mL (≈ 1.66 µM) | 4 µg/mL (≈ 3.32 µM) | > 256 µg/mL | > 256 µg/mL | 128 µg/mL (≈ 106 µM) | 128 µg/mL (≈ 106 µM)

Reference: ChEMBL document CHEMBL1153147, “Solid-phase synthesis and antibiotic activities of cyclodecapeptides on the scaffold of naturally occurring Laterocidin” (2010)
